Results reported in paper PMC11062922 (Nature Chemical Biology, 2023).

Key:
GSK3A = biological target: T1, GSK3A (Homo sapiens, UniProt P49840); test: Kinobeads two-dose competition binding: GSK3A; settings: read-out: Lestaurtinib Drugmatrix value, Gene Name GSK3A
T1 construct: endogenous in cells

HCK = biological target: T2, HCK (Homo sapiens, UniProt P08631); test: Kinobeads two-dose competition binding: HCK; settings: read-out: Lestaurtinib Drugmatrix value, Gene Name HCK; target HCK; each column = one Lestaurtinib control replicate (batch_R1-R3)
T2 construct: endogenous in cells
T2 sequence (P08631 whole entry): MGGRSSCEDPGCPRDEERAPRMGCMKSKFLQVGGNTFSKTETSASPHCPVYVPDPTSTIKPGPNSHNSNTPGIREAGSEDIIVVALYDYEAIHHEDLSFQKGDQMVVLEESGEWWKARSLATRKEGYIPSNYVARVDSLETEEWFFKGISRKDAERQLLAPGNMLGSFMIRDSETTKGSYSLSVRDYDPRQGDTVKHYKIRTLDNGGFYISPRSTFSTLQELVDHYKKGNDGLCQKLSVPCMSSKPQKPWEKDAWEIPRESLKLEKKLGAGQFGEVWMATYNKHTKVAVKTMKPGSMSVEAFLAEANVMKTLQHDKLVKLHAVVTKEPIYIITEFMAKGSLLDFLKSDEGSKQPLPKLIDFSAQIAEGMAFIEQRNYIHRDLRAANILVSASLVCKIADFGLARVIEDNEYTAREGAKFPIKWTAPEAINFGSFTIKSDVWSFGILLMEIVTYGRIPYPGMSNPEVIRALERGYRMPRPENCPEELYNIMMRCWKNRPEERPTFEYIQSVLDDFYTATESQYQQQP

PAK6 = biological target: T3, PAK6 (Homo sapiens, UniProt Q9NQU5); test: Kinobeads competition binding, Lestaurtinib control replicates: PAK6; settings: read-out: Lestaurtinib Drugmatrix value; Gene Name PAK6; one column per experiment number and replicate (R1-R3)
T3 construct: a mixture of lysates from five cancer cell lines; endogenous in cells
T3 sequence (Q9NQU5 whole entry): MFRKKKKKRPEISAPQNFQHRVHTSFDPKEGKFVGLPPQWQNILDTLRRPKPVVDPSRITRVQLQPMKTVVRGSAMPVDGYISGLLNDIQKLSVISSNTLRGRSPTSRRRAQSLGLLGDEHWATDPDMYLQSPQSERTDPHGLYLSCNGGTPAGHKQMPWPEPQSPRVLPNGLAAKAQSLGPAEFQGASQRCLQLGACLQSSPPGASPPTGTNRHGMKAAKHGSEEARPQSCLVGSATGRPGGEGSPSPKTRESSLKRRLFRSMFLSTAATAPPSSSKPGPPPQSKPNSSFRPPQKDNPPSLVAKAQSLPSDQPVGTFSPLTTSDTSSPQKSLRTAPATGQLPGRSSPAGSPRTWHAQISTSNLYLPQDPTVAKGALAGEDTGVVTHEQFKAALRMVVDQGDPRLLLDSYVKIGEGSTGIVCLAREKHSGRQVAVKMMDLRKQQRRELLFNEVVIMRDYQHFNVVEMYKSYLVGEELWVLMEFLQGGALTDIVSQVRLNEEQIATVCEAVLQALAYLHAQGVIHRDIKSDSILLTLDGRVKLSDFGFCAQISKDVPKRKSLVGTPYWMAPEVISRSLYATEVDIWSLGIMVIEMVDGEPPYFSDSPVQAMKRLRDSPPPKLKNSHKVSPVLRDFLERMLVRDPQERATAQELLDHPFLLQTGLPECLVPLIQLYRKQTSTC

CSNK1E = biological target: T4, CSNK1E (Homo sapiens, UniProt P49674); test: Kinobeads full dose-response competition binding: CSNK1E; settings: Gene Name CSNK1E
T4 construct: endogenous in cells
T4 sequence (P49674 whole entry): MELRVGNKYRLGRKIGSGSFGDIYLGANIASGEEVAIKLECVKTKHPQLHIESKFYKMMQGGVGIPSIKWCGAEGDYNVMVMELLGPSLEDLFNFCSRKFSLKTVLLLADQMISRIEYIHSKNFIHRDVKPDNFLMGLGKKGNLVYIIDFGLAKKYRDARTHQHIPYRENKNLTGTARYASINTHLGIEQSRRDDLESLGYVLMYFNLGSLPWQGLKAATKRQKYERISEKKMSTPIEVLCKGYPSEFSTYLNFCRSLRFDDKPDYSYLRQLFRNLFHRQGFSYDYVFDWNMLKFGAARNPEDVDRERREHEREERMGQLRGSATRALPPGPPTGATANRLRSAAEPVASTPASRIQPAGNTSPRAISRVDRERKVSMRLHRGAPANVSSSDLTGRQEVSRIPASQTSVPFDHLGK

MAPK14 = biological target: T5, MAPK14 (Homo sapiens, UniProt Q16539); test: Kinobeads full dose-response competition binding: MAPK14; settings: Gene Name MAPK14
T5 construct: endogenous in cells
T5 sequence (Q16539 whole entry): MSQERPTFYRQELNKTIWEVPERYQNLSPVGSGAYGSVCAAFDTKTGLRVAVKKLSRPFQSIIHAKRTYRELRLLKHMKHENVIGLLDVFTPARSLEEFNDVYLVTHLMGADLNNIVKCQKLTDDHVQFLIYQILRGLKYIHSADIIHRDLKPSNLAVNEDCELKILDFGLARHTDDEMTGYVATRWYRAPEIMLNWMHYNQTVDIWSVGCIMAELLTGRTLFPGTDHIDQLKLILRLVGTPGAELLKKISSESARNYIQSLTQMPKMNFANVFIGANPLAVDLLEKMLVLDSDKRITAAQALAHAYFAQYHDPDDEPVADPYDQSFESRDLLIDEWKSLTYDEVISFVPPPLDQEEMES

PKN2 = biological target: T6, PKN2 (Homo sapiens, UniProt Q16513); test: Kinobeads full dose-response competition binding: PKN2; settings: Gene Name PKN2
T6 construct: a mixture of lysates from five cancer cell lines; endogenous in cells
T6 sequence (Q16513 whole entry): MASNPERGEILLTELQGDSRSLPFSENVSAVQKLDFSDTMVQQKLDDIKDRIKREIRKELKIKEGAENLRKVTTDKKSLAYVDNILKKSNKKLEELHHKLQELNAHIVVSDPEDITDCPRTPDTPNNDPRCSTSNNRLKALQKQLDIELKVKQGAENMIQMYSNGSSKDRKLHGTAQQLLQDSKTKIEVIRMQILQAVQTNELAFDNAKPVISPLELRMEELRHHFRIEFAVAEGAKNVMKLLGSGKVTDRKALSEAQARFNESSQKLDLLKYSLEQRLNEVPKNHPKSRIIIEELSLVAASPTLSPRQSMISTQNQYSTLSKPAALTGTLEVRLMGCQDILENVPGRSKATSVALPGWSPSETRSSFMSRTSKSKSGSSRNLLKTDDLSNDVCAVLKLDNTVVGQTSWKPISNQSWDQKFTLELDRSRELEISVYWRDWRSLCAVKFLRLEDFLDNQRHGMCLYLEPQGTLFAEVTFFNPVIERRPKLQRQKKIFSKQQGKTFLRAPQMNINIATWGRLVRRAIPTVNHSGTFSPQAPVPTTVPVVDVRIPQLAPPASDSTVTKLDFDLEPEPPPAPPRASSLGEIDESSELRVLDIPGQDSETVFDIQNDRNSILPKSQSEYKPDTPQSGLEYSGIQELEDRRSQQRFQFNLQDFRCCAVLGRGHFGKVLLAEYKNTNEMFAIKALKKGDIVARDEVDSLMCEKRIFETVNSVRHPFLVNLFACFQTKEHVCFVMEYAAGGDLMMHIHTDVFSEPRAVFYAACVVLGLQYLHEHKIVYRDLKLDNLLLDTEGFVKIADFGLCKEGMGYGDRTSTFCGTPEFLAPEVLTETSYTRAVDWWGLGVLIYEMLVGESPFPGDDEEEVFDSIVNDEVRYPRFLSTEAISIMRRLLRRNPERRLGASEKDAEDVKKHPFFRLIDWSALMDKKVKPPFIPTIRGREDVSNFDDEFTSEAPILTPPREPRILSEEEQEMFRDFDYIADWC

PRKACB = biological target: T7, PRKACB (Homo sapiens, UniProt P22694); test: Kinobeads full dose-response competition binding: PRKACB; settings: Gene Name PRKACB
T7 construct: endogenous in cells

PRKCB = biological target: T8, PRKCB (Homo sapiens, UniProt P05771); test: Kinobeads full dose-response competition binding: PRKCB; settings: Gene Name PRKCB
T8 construct: endogenous in cells
T8 sequence (P05771 whole entry): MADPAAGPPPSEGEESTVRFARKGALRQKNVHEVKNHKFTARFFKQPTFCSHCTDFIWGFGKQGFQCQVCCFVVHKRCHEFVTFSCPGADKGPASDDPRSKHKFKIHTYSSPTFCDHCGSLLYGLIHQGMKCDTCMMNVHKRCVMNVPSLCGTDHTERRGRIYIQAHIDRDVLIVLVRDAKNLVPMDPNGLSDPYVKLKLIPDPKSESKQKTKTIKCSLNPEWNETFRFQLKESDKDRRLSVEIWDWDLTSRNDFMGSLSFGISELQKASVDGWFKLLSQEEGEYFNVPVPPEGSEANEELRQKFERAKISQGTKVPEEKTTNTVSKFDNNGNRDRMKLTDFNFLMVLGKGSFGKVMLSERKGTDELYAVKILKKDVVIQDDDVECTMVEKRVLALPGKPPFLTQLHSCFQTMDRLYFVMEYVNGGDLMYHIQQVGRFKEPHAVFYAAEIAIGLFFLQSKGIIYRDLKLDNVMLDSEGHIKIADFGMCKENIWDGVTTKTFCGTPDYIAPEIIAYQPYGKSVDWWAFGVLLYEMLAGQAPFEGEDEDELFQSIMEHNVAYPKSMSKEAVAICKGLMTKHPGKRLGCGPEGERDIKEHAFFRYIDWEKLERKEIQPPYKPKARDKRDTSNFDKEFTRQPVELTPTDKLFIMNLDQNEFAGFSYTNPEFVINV

[1] = tested on: IL-10 secretion in primary bone marrow-derived dendritic cells (BMDCs); test: IL-10 cytokine secretion assay (ELISA) in Zymosan-stimulated primary BMDCs; type: cell-based, mouse; settings: murine BMDCs, inhibitor 30 min before Zymosan stimulation
Protocol: A subsequent full dose–response experiment confirmed potent and selective binding to SYK ( Kdapp = 58 nM, […] = 0.60; Extended Data Fig. 5a,b). […] One of the effects of Zymosan is that it activates Dectin-1 signaling, in turn activating SYK and leading to increased IL-10 cytokine production (Fig. 3c)[34]. Treatment of cells with the respective SYK inhibitors before Zymosan stimulation indeed led to decreased levels of IL-10 in a dose-dependent fashion (Fig. 3d). […] In line with the cytokine readout, we observed a dose depended reduction of pTyr525/526 indicating SYK inhibition in live cells (Fig. 3e and Extended Data Fig. 5c).
Primary BMDCs were obtained from 9-week-old C57BL/6 mice that were maintained under standard specific pathogen-free conditions. BMDCs were differentiated for 7 days in Roswell Park Memorial Institute medium (Gibco) and granulocyte-macrophage colony-stimulating factor. On day seven, BMDCs were seeded in 96-well plates at 10^5 cells per well in 100 µl of culture medium followed by incubation for 4 h at 37 °C. Subsequently, cells were incubated with SYK inhibitors for 30 min followed by stimulation with Zymosan (final concentration of 50 µg ml^−1; Invivogen) and dispersed in culture medium for 24 h. […] For cytokine secretion quantification, cell culture medium was collected and concentrations of IL-10 in the supernatant were determined using mouse enzyme-linked immunosorbent assay kits (IL-10: Invitrogen) according to the manufacturer’s protocol. Experiments were performed in biological triplicates.

[2] = EC50 with Correction, doses in nM, read-out: apparent Kd
[3] = eight-dose curve fit, doses in nM

T1 sequence (P49840 whole entry): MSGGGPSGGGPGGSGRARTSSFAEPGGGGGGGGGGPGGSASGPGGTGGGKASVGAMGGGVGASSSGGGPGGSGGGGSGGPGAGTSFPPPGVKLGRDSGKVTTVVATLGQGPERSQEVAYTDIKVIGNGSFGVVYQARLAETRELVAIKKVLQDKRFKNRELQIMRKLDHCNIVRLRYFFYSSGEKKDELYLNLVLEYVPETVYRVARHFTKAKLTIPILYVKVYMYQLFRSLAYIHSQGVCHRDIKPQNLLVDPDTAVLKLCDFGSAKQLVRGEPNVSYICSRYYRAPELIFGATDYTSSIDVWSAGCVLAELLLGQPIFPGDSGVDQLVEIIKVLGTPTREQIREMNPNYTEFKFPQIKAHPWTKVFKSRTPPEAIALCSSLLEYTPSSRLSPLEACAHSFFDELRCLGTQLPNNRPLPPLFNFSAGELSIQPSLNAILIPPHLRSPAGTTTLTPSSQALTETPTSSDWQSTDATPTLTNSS

C[C@]12O[C@H](C[C@]1(O)CO)n1c3ccccc3c3c4c(c5c6ccccc6n2c5c31)CNC4=O [Lestaurtinib]
potency estimated from few doses (GSK3A): 175 nM
potency estimated from few doses (HCK): 587 nM
potency estimated from few doses (PAK6): 151 nM

NCc1ccc(-c2nc(-c3ccncc3)c(-c3ccc(Cl)c(O)c3)[nH]2)cc1 [SB-476429-A]
Relative Intensity 0.3nM (CSNK1E; 0.3nM compound, DMSO = 1): 1.09
Relative Intensity 1nM (CSNK1E; 1nM compound, DMSO = 1): 1.082
Relative Intensity 3nM (CSNK1E; 3nM compound, DMSO = 1): 1.034
Relative Intensity 10nM (CSNK1E; 10nM compound, DMSO = 1): 1.047
Relative Intensity 30nM (CSNK1E; 30nM compound, DMSO = 1): 0.8419
Relative Intensity 100nM (CSNK1E; 100nM compound, DMSO = 1): 0.9482
Relative Intensity 300nM (CSNK1E; 300nM compound, DMSO = 1): 0.7771
Relative Intensity 1000nM (CSNK1E; 1000nM compound, DMSO = 1): 0.494
Kd (CSNK1E; [2]): 642 nM
EC50 (CSNK1E; [3]): 642 nM
Relative Intensity 0.3nM (MAPK14; 0.3nM compound, DMSO = 1): 1.121
Relative Intensity 1nM (MAPK14; 1nM compound, DMSO = 1): 0.9468
Relative Intensity 3nM (MAPK14; 3nM compound, DMSO = 1): 1.026
Relative Intensity 10nM (MAPK14; 10nM compound, DMSO = 1): 0.8638
Relative Intensity 30nM (MAPK14; 30nM compound, DMSO = 1): 0.6876
Relative Intensity 100nM (MAPK14; 100nM compound, DMSO = 1): 0.6751
Relative Intensity 300nM (MAPK14; 300nM compound, DMSO = 1): 0.325
Relative Intensity 1000nM (MAPK14; 1000nM compound, DMSO = 1): 0.2
Kd (MAPK14; [2]): 174 nM
EC50 (MAPK14; [3]): 174 nM

CCn1c(-c2nonc2N)nc2c(C#CC(C)(C)O)nc(OCCN)cc21 [GSK902056A]
Relative Intensity 0.3nM (PKN2; 0.3nM compound, DMSO = 1): 0.9769
Relative Intensity 1nM (PKN2; 1nM compound, DMSO = 1): 1.016
Relative Intensity 3nM (PKN2; 3nM compound, DMSO = 1): 1.0433
Relative Intensity 10nM (PKN2; 10nM compound, DMSO = 1): 1.014
Relative Intensity 30nM (PKN2; 30nM compound, DMSO = 1): 0.9503
Relative Intensity 100nM (PKN2; 100nM compound, DMSO = 1): 0.8449
Relative Intensity 300nM (PKN2; 300nM compound, DMSO = 1): 0.6334
Relative Intensity 1000nM (PKN2; 1000nM compound, DMSO = 1): 0.3485
Kd (PKN2; [2]): 401 nM
EC50 (PKN2; [3]): 401 nM
Relative Intensity 0.3nM (PRKACB; 0.3nM compound, DMSO = 1): 0.9369
Relative Intensity 1nM (PRKACB; 1nM compound, DMSO = 1): 1.09
Relative Intensity 3nM (PRKACB; 3nM compound, DMSO = 1): 1.112
Relative Intensity 10nM (PRKACB; 10nM compound, DMSO = 1): 0.9825
Relative Intensity 30nM (PRKACB; 30nM compound, DMSO = 1): 0.9287
Relative Intensity 100nM (PRKACB; 100nM compound, DMSO = 1): 0.758
Relative Intensity 300nM (PRKACB; 300nM compound, DMSO = 1): 0.7526
Relative Intensity 1000nM (PRKACB; 1000nM compound, DMSO = 1): 0.5592
Kd (PRKACB; [2]): 145 nM
EC50 (PRKACB; [3]): 145 nM
Relative Intensity 0.3nM (PRKCB; 0.3nM compound, DMSO = 1): 1.022
Relative Intensity 1nM (PRKCB; 1nM compound, DMSO = 1): 1.013
Relative Intensity 3nM (PRKCB; 3nM compound, DMSO = 1): 1.059
Relative Intensity 10nM (PRKCB; 10nM compound, DMSO = 1): 1.038
Relative Intensity 30nM (PRKCB; 30nM compound, DMSO = 1): 0.9653
Relative Intensity 100nM (PRKCB; 100nM compound, DMSO = 1): 0.9
Relative Intensity 300nM (PRKCB; 300nM compound, DMSO = 1): 0.7943
Relative Intensity 1000nM (PRKCB; 1000nM compound, DMSO = 1): 0.5993
Kd (PRKCB; [2]): 401 nM
EC50 (PRKCB; [3]): 410 nM

Cn1cc(-c2nc(N[C@@H]3CCCC[C@@H]3N)c(F)c3c2C(=O)NC3)cn1 [TAK659]
IL-10 levels [1]: dose-dependent reduction
